Results: patent publication US20070128217A1 (priority 2003, published 2007)

Tests used:
[1] = test system: rabbit serum obtained by immunizing a rabbit with the SARS-CoV strain Frankfurt 1; format: binding; set-up: Binding of a rabbit serum to linear peptides / Binding of a rabbit serum to looped peptides / Rabbit serum linear peptides / Rabbit serum looped peptides / Binding of a rabbit serum to linear peptides of protein N of SARS-CoV Urbani (Rabbit serum linear peptides) / Binding of a rabbit serum to looped/cyclic peptides of protein N of SARS-CoV Urbani (Rabbit serum looped peptides): unit not given here
[2] = test system: control sera (pooled serum of ten healthy LUMC hospital workers; commercial negative donor pooled serum from the Dutch bloodbank); format: binding, human; set-up: Binding of Control serum LUMC to linear peptides / Binding of Control serum Blood-bank to linear peptides / Binding of Control serum LUMC to looped peptides / Binding of Control Serum Blood-Bank to Looped peptides / Binding of Control serum LUMC to linear peptides of the protein M of SARS-CoV Urbani / Binding of Control serum Blood-bank to linear peptides of the protein M of SARS-CoV Urbani / Binding of Control serum LUMC to looped peptides of the protein M of SARS-CoV Urbani / Binding of Control Serum Blood-Bank to Looped peptides of the protein M of SARS-CoV Urbani: unit not given here
[3] = test system: antibodies in sera from SARS patients (sera 1a, 1b, 2, 6, 37, 62, London, SARS-yellow, SARS-green); format: binding, human; set-up: Binding of serum 6 to linear peptides of protein X1 of SARS-CoV Urbani / Binding of serum 37 to linear peptides of protein X1 of SARS-CoV Urbani / Binding of serum 6 to looped/cyclic peptide (PEPSCAN-ELISA) / Binding of serum 37 to looped/cyclic peptide (PEPSCAN-ELISA) / Binding of serum 37 to looped/cyclic peptides of protein X1 of SARS-CoV Urbani / Binding of serum 6 to linear peptides of protein X2 / Binding of serum 37 to linear peptides of protein X2 / Binding of serum 37 to looped/cyclic peptides of protein X2 of SARS-CoV Urbani / Binding of serum 6 to linear peptides of protein M of SARS-CoV Urbani / Binding of serum 37 to linear peptides of protein M of SARS-CoV Urbani / Binding of serum 6 to looped/cyclic peptides of protein M of SARS-CoV Urbani / Binding of serum 37 to looped/cyclic peptides of protein M of SARS-CoV Urbani / Binding of serum 6 to linear peptides of protein X3 of SARS-CoV Urbani / Binding of serum 37 to linear peptides of protein X3 of SARS-CoV Urbani / Binding of serum 37 to looped/cyclic peptides of protein X3 of SARS-CoV Urbani / Binding of serum 6 to linear peptides of protein X4 of SARS-CoV Urbani / Binding of serum 37 to linear peptides of protein X4 of SARS-CoV Urbani / Binding of serum 37 to looped/cyclic peptides of protein X4 of SARS-CoV Urbani / Binding of serum 6 to linear peptides of protein X5 of SARS-CoV Urbani / Binding of serum 37 to linear peptides of protein X5 of SARS-CoV Urbani / Binding of serum 37 to looped/cyclic peptides of protein X5 of SARS-CoV Urbani / Binding of serum 6 to linear peptides of protein N of SARS-CoV Urbani / Binding of serum 37 to linear peptides of protein N of SARS-CoV Urbani / Binding of serum 6 to linear peptide (PEPSCAN-ELISA) / Binding of serum 1a to looped/cyclic peptides of protein N of SARS-CoV Urbani / Binding of serum 1b to looped/cyclic peptides of protein N of SARS-CoV Urbani / Binding of serum 2 to looped/cyclic peptides of protein N of SARS-CoV Urbani / Binding of serum 6 to looped/cyclic peptides of protein N of SARS-CoV Urbani / Binding of serum 37 to looped/cyclic peptides of protein N of SARS-CoV Urbani / Binding of serum 62 to looped/cyclic peptides of protein N of SARS-CoV Urbani / Binding of serum London to looped/cyclic peptides of protein N of SARS-CoV Urbani / Binding of serum SARS-green to looped/cyclic peptides of protein N of SARS-CoV Urbani: unit not given here

LNKRWQLALYKGFQF
0.1: Binding of serum SARS-green to looped/cyclic peptide (PEPSCAN-ELISA) [3]
0.7: Binding of serum 1b to linear peptides of protein X1 of SARS-CoV Urbani [3]
0.3: Binding of serum London to linear peptides of protein X1 of SARS-CoV Urbani [3] | Binding of serum London to looped/cyclic peptide (PEPSCAN-ELISA) [3] | Binding of serum SARS-green to linear peptides of protein X1 of SARS-CoV Urbani [3] | Binding of serum SARS-yellow to linear peptides of protein X1 of SARS-CoV Urbani [3]
0.5: Binding of serum 2 to looped/cyclic peptide (PEPSCAN-ELISA) [3] | Binding of serum 6 to looped/cyclic peptide (PEPSCAN-ELISA) [3] | Binding of serum 37 to looped/cyclic peptide (PEPSCAN-ELISA) [3]
0.4: Binding of serum 1b to looped/cyclic peptide (PEPSCAN-ELISA) [3] | Binding of serum SARS-yellow to looped/cyclic peptide (PEPSCAN-ELISA) [3]
0.8: Binding of Control serum Blood-bank to linear peptides [2] | Binding of serum 2 to linear peptides of protein X1 of SARS-CoV Urbani [3] | Binding of serum 6 to linear peptides of protein X1 of SARS-CoV Urbani [3]
recognized: Recognition of the peptide by the rabbit serum [1]
0.6: Binding of Control Serum Blood-Bank to Looped peptides [2] | Binding of Control serum LUMC to linear peptides [2] | Binding of Control serum LUMC to looped peptides [2] | Binding of serum 1a to linear peptides of protein X1 of SARS-CoV Urbani [3] | Binding of serum 1a to looped/cyclic peptide (PEPSCAN-ELISA) [3] | Binding of serum 37 to linear peptides of protein X1 of SARS-CoV Urbani [3] | Binding of serum 62 to linear peptides of protein X1 of SARS-CoV Urbani [3] | Binding of serum 62 to looped/cyclic peptide (PEPSCAN-ELISA) [3]

LNVPLRGTIVTRPLM
0.7: Binding of Control serum Blood-bank to linear peptides of the protein M of SARS-CoV Urbani [2] | Binding of Control serum LUMC to looped peptides of the protein M of SARS-CoV Urbani [2] | Binding of serum 1a to linear peptides of protein M of SARS-CoV Urbani [3]
0.4: Rabbit serum looped peptides [1] | Binding of serum London to linear peptides of protein M of SARS-CoV Urbani [3] | Binding of serum SARS-green to linear peptides of protein M of SARS-CoV Urbani [3]
0.1: Binding of serum SARS-yellow to linear peptides of protein M of SARS-CoV Urbani [3]
0.2: Rabbit serum linear peptides [1]
0.5: Binding of Control serum LUMC to linear peptides of the protein M of SARS-CoV Urbani [2] | Binding of serum 1b to linear peptides of protein M of SARS-CoV Urbani [3] | Binding of serum 6 to linear peptides of protein M of SARS-CoV Urbani [3] | Binding of serum 37 to linear peptides of protein M of SARS-CoV Urbani [3] | Binding of serum 62 to linear peptides of protein M of SARS-CoV Urbani [3]
0.6: Binding of Control Serum Blood-Bank to Looped peptides of the protein M of SARS-CoV Urbani [2] | Binding of serum 2 to linear peptides of protein M of SARS-CoV Urbani [3]
recognized in looped/cyclic form: Recognition of the peptide by sera of SARS-CoV infected individuals, and form (linear, looped/cyclic) in which it is recognized [3]

LPKEITVATSRTLSY
0.7: Binding of Control serum LUMC to linear peptides of the protein M of SARS-CoV Urbani [2] | Binding of serum 1a to linear peptides of protein M of SARS-CoV Urbani [3]
0.4: Binding of serum 1b to looped/cyclic peptides of protein M of SARS-CoV Urbani [3] | Binding of serum 6 to linear peptides of protein M of SARS-CoV Urbani [3] | Binding of serum 37 to linear peptides of protein M of SARS-CoV Urbani [3] | Binding of serum SARS-green to linear peptides of protein M of SARS-CoV Urbani [3]
0.2: Rabbit serum linear peptides [1] | Rabbit serum looped peptides [1] | Binding of serum London to looped/cyclic peptides of protein M of SARS-CoV Urbani [3] | Binding of serum SARS-yellow to linear peptides of protein M of SARS-CoV Urbani [3]
0.3: Binding of serum London to linear peptides of protein M of SARS-CoV Urbani [3] | Binding of serum SARS-green to looped/cyclic peptides of protein M of SARS-CoV Urbani [3]
0.8: Binding of Control serum Blood-bank to linear peptides of the protein M of SARS-CoV Urbani [2]
0.6: Binding of Control Serum Blood-Bank to Looped peptides of the protein M of SARS-CoV Urbani [2] | Binding of Control serum LUMC to looped peptides of the protein M of SARS-CoV Urbani [2] | Binding of serum 1a to looped/cyclic peptides of protein M of SARS-CoV Urbani [3] | Binding of serum 2 to linear peptides of protein M of SARS-CoV Urbani [3] | Binding of serum 2 to looped/cyclic peptides of protein M of SARS-CoV Urbani [3] | Binding of serum 6 to looped/cyclic peptides of protein M of SARS-CoV Urbani [3] | Binding of serum 37 to looped/cyclic peptides of protein M of SARS-CoV Urbani [3]
0.5: Binding of serum 1b to linear peptides of protein M of SARS-CoV Urbani [3] | Binding of serum 62 to linear peptides of protein M of SARS-CoV Urbani [3] | Binding of serum 62 to looped/cyclic peptides of protein M of SARS-CoV Urbani [3] | Binding of serum SARS-yellow to looped/cyclic peptides of protein M of SARS-CoV Urbani [3]

LQASLPFGWLVIGVA
0.5: Binding of a rabbit serum to linear peptides [1] | Binding of Control serum LUMC to linear peptides [2] | Binding of Control serum LUMC to looped peptides [2] | Binding of serum 62 to looped/cyclic peptide (PEPSCAN-ELISA) [3]
0.6: Binding of Control Serum Blood-Bank to Looped peptides [2] | Binding of serum 1b to linear peptides of protein X1 of SARS-CoV Urbani [3] | Binding of serum 2 to linear peptides of protein X1 of SARS-CoV Urbani [3] | Binding of serum SARS-yellow to linear peptides of protein X1 of SARS-CoV Urbani [3]
0.3: Binding of serum 1b to looped/cyclic peptide (PEPSCAN-ELISA) [3] | Binding of serum 2 to looped/cyclic peptide (PEPSCAN-ELISA) [3] | Binding of serum 6 to looped/cyclic peptide (PEPSCAN-ELISA) [3] | Binding of serum SARS-green to linear peptides of protein X1 of SARS-CoV Urbani [3]
0.2: Binding of serum London to linear peptides of protein X1 of SARS-CoV Urbani [3] | Binding of serum London to looped/cyclic peptide (PEPSCAN-ELISA) [3] | Binding of serum SARS-green to looped/cyclic peptide (PEPSCAN-ELISA) [3]
0.8: Binding of Control serum Blood-bank to linear peptides [2]
0.7: Binding of serum 1a to linear peptides of protein X1 of SARS-CoV Urbani [3] | Binding of serum 37 to linear peptides of protein X1 of SARS-CoV Urbani [3] | Binding of serum 62 to linear peptides of protein X1 of SARS-CoV Urbani [3]
0.4: Binding of a rabbit serum to looped peptides [1] | Binding of serum 1a to looped/cyclic peptide (PEPSCAN-ELISA) [3] | Binding of serum 6 to linear peptides of protein X1 of SARS-CoV Urbani [3] | Binding of serum 37 to looped/cyclic peptide (PEPSCAN-ELISA) [3] | Binding of serum SARS-yellow to looped/cyclic peptide (PEPSCAN-ELISA) [3]
